Measurements as given in patent US20220242861A1, “IMIDAZOPYRIDINYL COMPOUNDS AND USE THEREOF FOR TREATMENT OF PROLIFERATIVE DISORDERS” (1ST Biotherapeutics, Inc., priority 2019, published 2022).

Experiments:
recombinant human PDGFRα = molecular target: T1, recombinant human PDGFRα (Homo sapiens, UniProt P16234); assay: PDGFRα Kinase Assay (ADP-Glo); assay type: biochemical; settings: In vitro kinase activity, read-out: PDGFRa IC50
T1 construct: purchased Signalchem
Method: (§1) ADP-Glo assay kit was purchased from Promega. Magnesium chloride (MgCl2), ethylene glycol-bis(p-aminoethyl ether)-N,N,N′,N′-tetraacetic acid (EGTA), bovine serum albumin (BSA), 1,4-dithiothreitol (DTT) and dimethyl sulfoxide (DMSO) were purchased from Sigma-Aldrich. HEPES buffer was purchased from Gibco. PDGFRα Kinase and poly (4:1 Glu, Tyr) peptide were purchased from Signalchem.
(§2) PDGFRα kinase activity was measured by Promega's ADP-Glo™ Assay. In this assay, 40ng of recombinant human PDGFRα is incubated with 5 μL of compounds (0.5% DMSO), 5 μL of Poly (4:1 Glu, Tyr) peptide (100 ng/μl) and 5 μL of ATP (25 pM) in buffer (50 mM HEPES, pH7.5; 10 mM MgCl2; 1 mM EGTA; 0.05% BSA; 50 μM DTT). The assay was started by incubating the reaction mixture in a 96-well plate at 30° C. for 60-min. After the incubation, 25 μL ADP-Glo reagent was added and the reaction was incubated at room temperature for 40-min to stop the reaction and degrade residual ATP. The ADP product was then converted to ATP by adding 50 μL per well of detection reagent. Luminescence was detected after 30-min room temperature incubation with the Molecular device I3X plate reader. The IC50 values were calculated from a series of percent inhibition values determined at a range of inhibitor concentration using software routines as implemented in the GraphPad Prism 8 software and Sigma Plot 13.0.

[1] = molecular target: T2, recombinant human c-Kit (D816V) (Homo sapiens, UniProt P10721, D816V); assay: c-Kit (D816V) Kinase Assay (ADP-Glo); assay type: biochemical; settings: In vitro kinase activity
T2 construct: purchased Signalchem
T2 sequence (P10721 26-976 D816V): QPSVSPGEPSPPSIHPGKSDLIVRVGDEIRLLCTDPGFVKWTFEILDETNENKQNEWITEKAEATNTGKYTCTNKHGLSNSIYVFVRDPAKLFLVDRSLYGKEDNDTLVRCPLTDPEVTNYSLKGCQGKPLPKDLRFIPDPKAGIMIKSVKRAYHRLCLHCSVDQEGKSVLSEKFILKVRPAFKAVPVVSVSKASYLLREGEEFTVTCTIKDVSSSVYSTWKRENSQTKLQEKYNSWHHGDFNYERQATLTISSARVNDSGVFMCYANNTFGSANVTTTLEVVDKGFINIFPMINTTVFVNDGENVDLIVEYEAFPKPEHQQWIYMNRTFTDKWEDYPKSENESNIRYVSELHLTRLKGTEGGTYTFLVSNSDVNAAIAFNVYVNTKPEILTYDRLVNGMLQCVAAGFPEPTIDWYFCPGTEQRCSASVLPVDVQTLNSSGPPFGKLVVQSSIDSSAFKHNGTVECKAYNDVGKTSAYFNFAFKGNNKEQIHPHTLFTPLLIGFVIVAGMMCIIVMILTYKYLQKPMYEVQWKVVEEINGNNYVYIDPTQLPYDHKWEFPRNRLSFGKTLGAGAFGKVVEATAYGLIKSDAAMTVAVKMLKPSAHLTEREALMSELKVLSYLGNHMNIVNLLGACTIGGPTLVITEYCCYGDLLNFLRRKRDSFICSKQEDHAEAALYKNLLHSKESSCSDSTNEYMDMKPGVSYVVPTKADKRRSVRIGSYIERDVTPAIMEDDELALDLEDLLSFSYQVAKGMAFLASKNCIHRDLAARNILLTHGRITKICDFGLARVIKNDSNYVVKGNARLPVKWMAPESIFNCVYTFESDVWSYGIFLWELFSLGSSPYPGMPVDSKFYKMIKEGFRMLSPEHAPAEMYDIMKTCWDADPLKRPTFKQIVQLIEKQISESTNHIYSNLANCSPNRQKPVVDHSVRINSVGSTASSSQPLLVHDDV
Method: as §1, with “glycol-bis(β-aminoethyl” for “glycol-bis(p-aminoethyl”, “c-Kit (D816V) kinase” for “PDGFRα Kinase”
as §2, with “c-Kit (D816V)” for “PDGFRα”, “ADP-GIoTM” for “ADP-Glo™”, “2.5ng” for “40ng”, “(50” for “(100”, “(15 μM)” for “(25 pM)”, “120-min.” for “60-min.”

recombinant human c-Kit = molecular target: T3, recombinant human c-Kit (Homo sapiens, UniProt P10721); assay: c-Kit Kinase Assay (ADP-Glo); assay type: biochemical; settings: In vitro kinase activity
T3 construct: purchased Signalchem
T3 sequence (P10721 26-976): as the sequence (P10721 26-976 D816V) above, with V791D counted along it
Method: as §1, with “glycol-bis([…]” for “glycol-bis(p-aminoethyl”, “(EGTA), manganese (II) chloride (MnCl2),” for “(EGTA),”, “c-Kit kinase” for “PDGFRα Kinase”
as §2, with “c-Kit” for “PDGFRα”, “100ng” for “40ng”, “(50” for “(100”, “(50 μM)” for “(25 pM)”, “50μM DTT; 2mM MnCl2).” for “50 μM DTT).”, “120-min.” for “60-min.”

[2] = molecular target: T4, recombinant human PDGFRα (D842V) (Homo sapiens, UniProt P16234, D842V); assay: PDGFRα (D842V) Kinase Assay (ADP-Glo); assay type: biochemical; settings: In vitro kinase activity
T4 construct: purchased Signalchem
T4 sequence (P16234 24-1089 D842V): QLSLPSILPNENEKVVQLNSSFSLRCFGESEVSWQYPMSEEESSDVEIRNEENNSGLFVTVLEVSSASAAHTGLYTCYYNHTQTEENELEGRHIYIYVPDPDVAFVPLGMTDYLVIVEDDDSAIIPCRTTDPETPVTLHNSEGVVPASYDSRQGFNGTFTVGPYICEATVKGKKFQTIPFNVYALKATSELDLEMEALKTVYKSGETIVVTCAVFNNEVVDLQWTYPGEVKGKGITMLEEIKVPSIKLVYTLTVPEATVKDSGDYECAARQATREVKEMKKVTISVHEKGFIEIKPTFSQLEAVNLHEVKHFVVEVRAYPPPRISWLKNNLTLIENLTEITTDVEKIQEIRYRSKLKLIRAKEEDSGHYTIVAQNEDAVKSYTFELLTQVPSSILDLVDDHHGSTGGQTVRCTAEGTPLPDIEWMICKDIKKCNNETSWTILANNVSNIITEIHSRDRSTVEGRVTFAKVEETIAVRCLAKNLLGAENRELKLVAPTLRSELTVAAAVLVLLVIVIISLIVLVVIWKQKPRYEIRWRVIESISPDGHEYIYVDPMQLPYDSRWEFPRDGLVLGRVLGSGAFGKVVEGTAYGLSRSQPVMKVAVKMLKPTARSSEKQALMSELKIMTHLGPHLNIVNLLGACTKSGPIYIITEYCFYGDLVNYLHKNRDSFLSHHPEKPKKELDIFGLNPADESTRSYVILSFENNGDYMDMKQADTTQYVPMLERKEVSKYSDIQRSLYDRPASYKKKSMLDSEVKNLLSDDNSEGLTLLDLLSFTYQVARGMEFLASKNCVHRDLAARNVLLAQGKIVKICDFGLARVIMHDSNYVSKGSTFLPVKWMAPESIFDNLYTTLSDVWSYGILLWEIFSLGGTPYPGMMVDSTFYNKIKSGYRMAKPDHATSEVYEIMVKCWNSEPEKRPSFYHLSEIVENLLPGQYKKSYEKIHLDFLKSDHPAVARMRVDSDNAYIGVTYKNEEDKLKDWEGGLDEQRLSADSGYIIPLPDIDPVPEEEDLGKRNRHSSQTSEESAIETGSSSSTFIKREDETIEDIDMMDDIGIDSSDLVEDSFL
Method: as §1, with “ether)-N, N, N′, N′-tetraacetic” for “ether)-N,N,N′,N′-tetraacetic”, “PDGFRα (D842V)” for “PDGFRα”
as §2, with “PDGFRα (D842V)” for “PDGFRα”, “10 ng” for “40ng”, “([…]” for “(25”, “[…]” for “50 μM”, “120-min.” for “60-min.”

[3] = system: K562 human leukemia cell line; assay: K562 Cell Proliferation Assay (MTS); assay type: cell-based; settings: K562 cells, 48 hr incubation, MTS cell viability
Method: K562 human leukemia cell line purchased from Korean cell line bank (KCLB) and were cultured in Roswell Park Memorial Institute (RPMI) 1640 Medium supplemented with 10% fetal bovine serum (FBS) and 1% penicillin-streptomycin in a humidified incubator in an atmosphere of 5% CO2 at 37° C. Cells were seeded in 96-well plates at a density of 2×10^3 cells/well in 100 […] media. Compounds were diluted as two times concentration in 100 μl of media and added to each well. Compounds were 5-fold serially diluted for 6 points and treated from 5 μM to 1.6 nM in K562 cells. After 48 hr incubation, Compound treated cells were analyzed for anti-proliferation assay. Cell viability was investigated using the Cell Titer 96 Aqueous One Solution Reagent. Briefly, 200 μl of media were supplemented with 40 μl of MTS solution, incubated for 4hr, and then the absorbance was recorded at 490 nm with a 96-well plate reader. G150 values were calculated from a series of percent of cell viability at a range of compound concentration. GraphPad Prism 8 software or SigmaPlot 13.0 was used to generate G150 values.

T1 sequence (P16234 24-1089): as the sequence (P16234 24-1089 D842V) above, with V819D counted along it

| IC50 (recombinant human PDGFRα) [nM] | IC50 [1] [nM] | IC50 (recombinant human c-Kit) [nM] | IC50 [2] [nM] | IC50 [3] [nM] | SMILES |
| --- | --- | --- | --- | --- | --- |
| 101 to 1000 | 101 to 1000 | > 1000 | 10 to 100 | 101 to 1000 | O=C(Nc1cn2cc(-c3cccc(F)c3CO)ccc2n1)[C@@H]1C[C@@H]1F [Example 57, (1 S,2 S)-2-fluoro-N-(6-(3-fluoro-2-(hydroxymethyl)phenyl)imidazo[1,2-a]pyridin-2-yl)cyclopropane-1-carboxamide] |
| > 1000 | > 1000 | > 1000 | > 1000 | – | NCc1c(F)cccc1-c1ccc2nc(NC(=O)[C@@H]3C[C@@H]3F)cn2c1 [Example 74, (1 S,2 S)-N-(6-(2-(aminomethyl)-3-fluorophenyl)imidazo[1,2-a]pyridin-2-yl)-2-fluorocyclopropanecarboxamide] |
| > 1000 | > 1000 | > 1000 | > 1000 | – | CC(=O)NCc1c(F)cccc1-c1ccc2nc(NC(=O)[C@@H]3C[C@@H]3F)cn2c1 [Example 75, (1 S,2 S)-N-(6-(2-(acetamidomethyl)-3-fluorophenyl)imidazo[1,2-a]pyridin-2-yl)-2-fluorocyclopropanecarboxamide] |
| > 1000 | > 1000 | > 1000 | > 1000 | – | CNCc1c(F)cccc1-c1ccc2nc(NC(=O)[C@@H]3C[C@@H]3F)cn2c1 [Example 80, (1 S,2 S)-2-fluoro-N-(6-(3-fluoro-2-((methylamino)methyl)phenyl)imidazo[1,2-a]pyridin-2-yl)cyclopropanecarboxamide] |
| > 1000 | > 1000 | > 1000 | > 1000 | – | CC(C)NCc1c(F)cccc1-c1ccc2nc(NC(=O)[C@@H]3C[C@@H]3F)cn2c1 [Example 81, (1 S,2 S)-2-fluoro-N-(6-(3-fluoro-2-((isopropylamino)methyl)phenyl)imidazo[1,2-a]pyridin-2-yl)cyclopropanecarboxamide] |
| 101 to 1000 | > 1000 | > 1000 | 101 to 1000 | – | COCCOCc1c(F)cccc1-c1ccc2nc(NC(=O)[C@@H]3C[C@@H]3F)cn2c1 [Example 82] |
| 101 to 1000 | > 1000 | > 1000 | 101 to 1000 | – | O=C(Nc1cn2cc(-c3cccc(F)c3COCCO)ccc2n1)[C@@H]1C[C@@H]1F [Example 83, (1 S,2 S)-2-fluoro-N-(6-(3-fluoro-2-((2-hydroxyethoxy)methyl)phenyl)imidazo[1,2-a]pyridin-2-yl)cyclopropanecarboxamide] |
